Drawing on publication PMC12751012, “Nanoscale Direct-to-Biology Optimization and Structural Insights into Selective S. aureus TrmD Inhibitors” (Journal of Medicinal Chemistry, 2025), this text covers inhibition for 34 molecules.

In this assay the target is T1, S. aureus TrmD (Staphylococcus aureus, UniProt Q2FZ43).
T1 construct: made in house; host or cells: E. coli BL21
T1 sequence (Q2FZ43 1-245): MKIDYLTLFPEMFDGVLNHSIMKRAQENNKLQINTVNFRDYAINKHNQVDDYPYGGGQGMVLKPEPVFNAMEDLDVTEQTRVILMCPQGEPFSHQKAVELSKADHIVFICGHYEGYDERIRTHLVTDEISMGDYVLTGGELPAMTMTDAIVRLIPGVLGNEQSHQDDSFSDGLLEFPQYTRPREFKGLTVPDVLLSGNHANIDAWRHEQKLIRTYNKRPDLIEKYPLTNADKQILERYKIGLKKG
The assay can be described thus: nanoSAR direct-to-biology FP displacement screening of crude triazoles. The assay is classed as binding. Particulars: crude triazole at 1 μM, assuming full conversion; 500 nM TrmD, 10 nM tracer 4; read-out: % displaced tracer. In short, it runs like this:
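S. aureus TrmD (500 nM) with tracer 4 (10 nM) in Tris/NaCl/MgCl2/glycerol buffer, pH 7.5, was challenged with unpurified triazoles from in situ CuAAC of alkyne 7 with a 320-member azide library.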

Consider `O=c1[nH]cnc2[nH]cc(-c3cn(CCCCCO)nn3)c12` [Compound 02B01, O=C1NC=NC=2NC=C(C=3N=NN(C3)CCCCCO)C12], for which the inhibition at 1 µM is 27%.
Take `O=c1[nH]cnc2[nH]cc(-c3cn(Cc4nc5ccccc5[nH]4)nn3)c12` [Compound 01B08, O=C1NC=NC=2NC=C(C=3N=NN(C3)CC4=Nc5c(N4)cccc5)C12]: the inhibition at 1 µM is 43%.
With `CCc1nc(C)c(Cn2cc(-c3c[nH]c4nc[nH]c(=O)c34)nn2)o1` [Compound 01G02, O=C1NC=NC=2NC=C(C=3N=NN(C3)CC=4OC(=NC4C)CC)C12], the inhibition at 1 µM was found to be 71%.
The same measure for `O=C1NCCCC[C@H]1n1cc(-c2c[nH]c3nc[nH]c(=O)c23)nn1` [Compound 03A05, O=C1NC=NC=2NC=C(C=3N=NN(C3)[C@H]4C(=O)NCCCC4)C12]: 40%; for `O=c1[nH]cnc2[nH]cc(-c3cn([C@H]4CCNC4)nn3)c12` [Compound 03D07, O=C1NC=NC=2NC=C(C=3N=NN(C3)[C@@H]4C[NH2+]CC4)C12]: 27%; for `C[C@@H]1C[C@H](n2cc(-c3c[nH]c4nc[nH]c(=O)c34)nn2)c2ccsc2S1(=O)=O` [Compound 03D02, S1(=O)(=O)C=2SC=CC2[C@@H](N3N=NC(C=4C=5C(=O)NC=NC5NC4)=C3)C[C@H]1C]: 27%.
In the case of `O=C1CCC[C@@H](Cn2cc(-c3c[nH]c4nc[nH]c(=O)c34)nn2)N1` [Compound 04D01, O=C1NC=NC=2NC=C(C=3N=NN(C3)C[C@H]4NC(=O)CCC4)C12], the inhibition at 1 µM came out at 75%.
As for `CC(C)(C)Cn1cc(-c2c[nH]c3nc[nH]c(=O)c23)nn1` [Compound 04A03, O=C1NC=NC=2NC=C(C=3N=NN(C3)CC(C)(C)C)C12], the inhibition at 1 µM is 19%.
In the case of `CCOCCn1cc(-c2c[nH]c3nc[nH]c(=O)c23)nn1` [Compound 01B12, O=C1NC=NC=2NC=C(C=3N=NN(C3)CCOCC)C12], the inhibition at 1 µM came out at 21%.
The same measure for `CN(C)[C@@H]1CCN(CCn2cc(-c3c[nH]c4nc[nH]c(=O)c34)nn2)C1` [Compound 03E03, O=C1NC=NC=2NC=C(C=3N=NN(C3)CC[N@@H+]4C[C@H]([NH+](C)C)CC4)C12]: 40%; for `O=c1[nH]cnc2[nH]cc(-c3cn(-c4cccc5ncccc45)nn3)c12` [Compound 03B01, O=C1NC=NC=2NC=C(C=3N=NN(c4c5c(nccc5)ccc4)C3)C12]: 20%; for `NC1(c2noc(Cn3cc(-c4c[nH]c5nc[nH]c(=O)c45)nn3)n2)CCCCCC1` [Compound 02E06, O=C1NC=NC=2NC=C(C=3N=NN(C3)CC=4ON=C(N4)C5([NH3+])CCCCCC5)C12]: 24%.
For `O=c1[nH]cnc2[nH]cc(-c3cn(Cc4cc(C5CC5)no4)nn3)c12` [Compound 01A07, O=C1NC=NC=2NC=C(C=3N=NN(C3)CC=4ON=C(C4)C5CC5)C12], the inhibition at 1 µM worked out at 77%.
As for `COC1([C@H](CO)n2cc(-c3c[nH]c4nc[nH]c(=O)c34)nn2)CCC1` [Compound 02C06, O=C1NC=NC=2NC=C(C=3N=NN(C3)[C@H](C4(OC)CCC4)CO)C12], the inhibition at 1 µM was found to be 5%.
The same measure for `O=c1[nH]cnc2[nH]cc(-c3cn(CCOC4CCSCC4)nn3)c12` [Compound 01H07, S1CCC(OCCN2N=NC(C=3C=4C(=O)NC=NC4NC3)=C2)CC1]: 54%; for `O=c1[nH]cnc2[nH]cc(-c3cn(C[C@H]4CCCNC4)nn3)c12` [Compound 03H01, O=C1NC=NC=2NC=C(C=3N=NN(C3)C[C@@H]4C[NH2+]CCC4)C12]: 56%; for `CC(C)(C)OCCCn1cc(-c2c[nH]c3nc[nH]c(=O)c23)nn1` [Compound 03C07, O=C1NC=NC=2NC=C(C=3N=NN(C3)CCCOC(C)(C)C)C12]: 42%.
The same measure for `O=c1[nH]cnc2[nH]cc(-c3cn(CC4CCC=CCC4)nn3)c12` [Compound 02G01, O=C1NC=NC=2NC=C(C=3N=NN(C3)CC4CCC=CCC4)C12]: 71%.
With `NC(=O)c1csc(Cn2cc(-c3c[nH]c4nc[nH]c(=O)c34)nn2)n1` [Compound 02F07, S1C(=NC(C(=O)N)=C1)CN2N=NC(C=3C=4C(=O)NC=NC4NC3)=C2], the inhibition at 1 µM stood at 91%.
The same measure for `CC(C)(C)OC(=O)N1CC[C@H](C2CC2)[C@H]1Cn1cc(-c2c[nH]c3nc[nH]c(=O)c23)nn1` [Compound 04C03, O=C(OC(C)(C)C)N1[C@@H]([C@@H](C2CC2)CC1)CN3N=NC(C=4C=5C(=O)NC=NC5NC4)=C3]: 52%; for `CCc1nnc(Cn2cc(-c3c[nH]c4nc[nH]c(=O)c34)nn2)o1` [Compound 01D06, O=C1NC=NC=2NC=C(C=3N=NN(C3)CC=4OC(=NN4)CC)C12]: 31%; for `O=c1[nH]cnc2[nH]cc(-c3cn(CCF)nn3)c12` [Compound 01C05, FCCN1N=NC(C=2C=3C(=O)NC=NC3NC2)=C1]: 22%.
As for `CCO[C@@H]1CCCC[C@H]1n1cc(-c2c[nH]c3nc[nH]c(=O)c23)nn1` [Compound 03D09, O=C1NC=NC=2NC=C(C=3N=NN(C3)[C@H]4[C@H](OCC)CCCC4)C12], the inhibition at 1 µM came to 25%.
On to `Nc1ccc(-n2cc(-c3c[nH]c4nc[nH]c(=O)c34)nn2)cc1` [Compound 03D05, O=C1NC=NC=2NC=C(C=3N=NN(c4ccc(N)cc4)C3)C12], for which the inhibition at 1 µM turned out to be 2.34%.
`O=c1[nH]cnc2[nH]cc(-c3cn(Cc4cc(=O)n5nccc5[nH]4)nn3)c12` [Compound 02A09, O=C1N2N=CC=C2NC(=C1)CN3N=NC(C=4C=5C(=O)NC=NC5NC4)=C3]: the inhibition at 1 µM came out at 12%.
For the molecule `O=c1[nH]cnc2[nH]cc(-c3cn(C4(c5ccc(F)cc5)CCOCC4)nn3)c12` [Compound 02C10, Fc1ccc(cc1)C2(N3N=NC(C=4C=5C(=O)NC=NC5NC4)=C3)CCOCC2], the inhibition at 1 µM came out at 6%.
For `N#Cc1cc(Cl)ccc1-n1cc(-c2c[nH]c3nc[nH]c(=O)c23)nn1` [Compound 02H02, Clc1cc(C#N)c(N2N=NC(C=3C=4C(=O)NC=NC4NC3)=C2)cc1], the inhibition at 1 µM is 0%.
With `O=c1[nH]cnc2[nH]cc(-c3cn(-c4ccc(CCO)cc4)nn3)c12` [Compound 02G03, O=C1NC=NC=2NC=C(C=3N=NN(c4ccc(cc4)CCO)C3)C12], the inhibition at 1 µM is 15%.
On to `C[C@@H](O)Cn1cc(-c2c[nH]c3nc[nH]c(=O)c23)nn1` [Compound 04A01, O=C1NC=NC=2NC=C(C=3N=NN(C3)C[C@H](O)C)C12], for which the inhibition at 1 µM was 15%.
Take `C[C@H](c1ccccc1F)n1cc(-c2c[nH]c3nc[nH]c(=O)c23)nn1` [Compound 01E02, Fc1c(cccc1)[C@H](N2N=NC(C=3C=4C(=O)NC=NC4NC3)=C2)C]: the inhibition at 1 µM was found to be 50%.
Turning to `O=c1[nH]cnc2[nH]cc(-c3cn(CCc4ccccn4)nn3)c12` [Compound 04G02, O=C1NC=NC=2NC=C(C=3N=NN(C3)CCc4ncccc4)C12], the inhibition at 1 µM amounted to 89%.
With `O=c1[nH]cnc2[nH]cc(-c3cn(CCOCC4CCCC4)nn3)c12` [Compound 03B11, O=C1NC=NC=2NC=C(C=3N=NN(C3)CCOCC4CCCC4)C12] the figure was 44%; with `O=c1[nH]cnc2[nH]cc(-c3cn(Cc4ccc(Cl)s4)nn3)c12` [Compound 04C02, ClC=1SC(=CC1)CN2N=NC(C=3C=4C(=O)NC=NC4NC3)=C2], 92%.
As for `Cn1cc(-n2cc(-c3c[nH]c4nc[nH]c(=O)c34)nn2)cn1` [Compound 01E10, O=C1NC=NC=2NC=C(C=3N=NN(C=4C=NN(C4)C)C3)C12], the inhibition at 1 µM is 17%.
